The target in the experiment is T1, human IKK-2 (rhIKK-2 homodimer) (Homo sapiens, UniProt O14920).
T1 construct: FLAG (DYKDDDDKD) (C); made in house; host or cells: insect cells (baculovirus, pFastBac)
T1 sequence (O14920 1-756): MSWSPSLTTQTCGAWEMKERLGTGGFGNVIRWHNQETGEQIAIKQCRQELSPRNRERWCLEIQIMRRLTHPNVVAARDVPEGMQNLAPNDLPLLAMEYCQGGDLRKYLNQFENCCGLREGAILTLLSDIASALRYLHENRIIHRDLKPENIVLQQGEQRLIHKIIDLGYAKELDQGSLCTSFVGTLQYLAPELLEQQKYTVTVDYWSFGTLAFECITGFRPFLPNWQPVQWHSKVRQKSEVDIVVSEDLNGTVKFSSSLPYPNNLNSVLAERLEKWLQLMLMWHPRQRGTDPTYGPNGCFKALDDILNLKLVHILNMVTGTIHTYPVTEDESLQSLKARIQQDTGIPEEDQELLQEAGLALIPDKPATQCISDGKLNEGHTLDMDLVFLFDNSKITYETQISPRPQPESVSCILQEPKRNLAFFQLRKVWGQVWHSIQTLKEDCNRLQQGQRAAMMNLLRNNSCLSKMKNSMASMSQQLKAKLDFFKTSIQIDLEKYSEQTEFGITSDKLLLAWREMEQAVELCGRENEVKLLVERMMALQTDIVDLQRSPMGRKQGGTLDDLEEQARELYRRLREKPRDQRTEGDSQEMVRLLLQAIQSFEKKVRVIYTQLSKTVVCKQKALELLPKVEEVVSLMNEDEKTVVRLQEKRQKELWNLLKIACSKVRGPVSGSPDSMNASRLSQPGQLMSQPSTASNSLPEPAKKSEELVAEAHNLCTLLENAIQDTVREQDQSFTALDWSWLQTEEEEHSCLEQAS
The experiment can be described thus: IKK-2 Resin Enzyme Assay (Human IKK-2 Enzyme Assay). Format: biochemical. The following applies: human IKK-2, resin enzyme assay; read-out: IC50 (μM) hIKK-2. An excerpt: Materials: SAM^2™96 Biotin capture plates were from Promega. Anti-FLAG affinity resin, FLAG-peptide, NP-40 (Nonidet P-40), BSA, ATP, ADP, AMP, LPS (E. coli serotype 0111:B4), and dithiothreitol were obtained from Sigma Chemicals. Antibodies specific for NEMO (IKK-γ) (FL-419), IKK-1 (H-744), IKK-2(H-470) and IκBa(C-21) were purchased from Santa Cruz Biotechnology. Ni-NTA resin was purchased from Qiagen. Peptides were purchased from American Peptide Company. Protease inhibitor cocktail tablets were from Boehringer Mannheim. Sephacryl S-300 column was from Pharmacia LKB Biotechnology. Centriprep-10 concentrators with a molecular weight cutoff of 10 kDa and membranes with molecular weight cut-off of 30 kDa were obtained from Amicon. [γ-^33P] ATP (2500 Ci/mmol) and [γ-^32P] ATP (6000 Ci/mmol) were purchased from Amersham. The other reagents used were of the highest grade commercially available.
Cloning and Expression: cDNAs of human IKK-1 and IKK-2 were amplified by reverse transcriptase-polymerase chain reaction from human placental RNA (Clonetech). hlKK-1 was subcloned into pFastBac HTa (Life Technologies) and expressed as N-terminal His6-tagged fusion protein. The hlKK-2 cDNA was amplified using a reverse oligonucleotide primer which incorporated the peptide sequence for a FLAG-epitope tag at the C-terminus of the IKK-2 coding region (DYKDDDDKD). The hlKK-2:FLAG cDNA was subcloned into the baculovirus vector pFastBac. The rhIKK-2 ([…]) mutant was constructed in the same vector used for wild type rhIKK-2 using a QuikChange™ mutagenesis kit (Stratagene). Viral stocks of each construct were used to infect insect cells grown in 40 L suspension culture. […] Cell lysates were stored at −80° C. until purification of the recombinant proteins was undertaken as described below.
Enzyme Isolation: All purification procedures were carried out at 4° C. unless otherwise noted. Buffers used are: buffer A: 20 mM Tris-HCl, pH 7.6, containing 50 mM NaCl, 20 mM NaF, 20 mM β-Glycerophosphate, 500 μM sodium orthovanadate, 2.5 mM metabisulfite, 5 mM benzamidine, 1 mM EDTA, 0.5 mM EGTA, 10% glycerol, 1 mM DTT, 1× Complete™ protease inhibitors; buffer B: same as buffer A, except 150 mM NaCl, and buffer C: same as buffer A, except 500 mM NaCl.
Isolation of rhIKK-2 homodimer: A 10-liter culture of baculovirus-expressing IKK-2 tagged with FLAG peptide was centrifuged and the cell pellet (MOI=0.1 and 1=72 h) was re-suspended in buffer A. These cells were microfluidized, and centrifuged at 100,000×g for 45 min. Supernatant was passed over a G-25 column equilibrated with Buffer A. Protein peak was collected and incubated with anti-FLAG affinity resin on a rotator overnight in buffer B. The resin was washed in batch with 10-15 bed volumes of buffer C. Washed resin was poured into a column and rhIKK-2 homodimer was eluted using 5 bed volumes of buffer B containing FLAG peptide. 5 mM DTT, 0.1% NP-40 and BSA (concentrated to 0.1% in final amount) was added to the eluted enzyme before concentrating in using an Amicon membrane with a molecular weight cut-off of 30 kDa. Enzyme was aliquoted and stored at −80° C.
IKK-2 Resin Enzyme Assay: IKK-2 kinase activity was measured using a biotinylated IκBα peptide (Gly-Leu-Lys-Lys-Glu-Arg-Leu-Leu-Asp-Asp-Arg-His-Asp-Ser32-Gly-Leu-Asp-Ser36-Met-Lys-Asp-Glu-Glu) (American Peptide Co.). 20 μL of the standard reaction mixture contained 5 μM biotinylated IκBα peptide, 0.1 μCi/reaction [γ-^33P] ATP (Amersham) (about 1×10^5 cpm), 1 μM ATP (Sigma), 1 mM DTT (Sigma), 2 mM MgCl2 (Sigma), 2 mM MnCl2 (Sigma), 10 mM NaF (Sigma), 25 mM Hepes (Sigma) buffer, pH 7.6 and 20 μL enzyme solution and 10 μL inhibitor in a final volume of 50 μL. After incubation at 25° C. for 30 min, 150 μL resin (Dowex anion-exchange resin AG1X8 200-400 mesh) in 900 mM formate, pH 3.0 was added to each well to stop the reaction. Resin was allowed to settle for 1 h and 50 μL of supernatant was removed to a Micolite-2 flat bottom plate (Dynex). […]

The record followed here is patent US20050197338A1, “Substituted pyrazole urea compounds for the treatment of inflammation” (priority 2003, published 2005).

The IC50 is the concentration at which inhibition is half-maximal. Consider `Cc1cc(-c2cccc(-n3cc(NC(N)=O)c(C(N)=O)n3)c2)ccc1F` [Example 346, 4-[(aminocarbonyl)amino]-1-(4′-fluoro-3′-methyl-1,1′-biphenyl-3-yl)-1H-pyrazole-3-carboxamide], for which the IC50 was greater than 20 µM. For the molecule `CC(C)(C)OC(=O)COc1ccc(F)cc1-c1ccc(-n2cc(NC(N)=O)c(C(N)=O)n2)cc1` [Example 182, tert-butyl [(4′-{3-(aminocarbonyl)-4-[(aminocarbonyl)amino]-1H-pyrazol-1-yl}-5-fluoro-1,1′-biphenyl-2-yl)oxy]acetate], the IC50 was found to be 11.2 µM. In the case of `Cc1cc(-n2cc(NC(N)=O)c(C(N)=O)n2)ccc1-c1cccc(OCC#N)c1` [Example 243, 1-(3′-Cyanomethoxy-2-methyl-biphenyl-4-yl)-4-ureido-1H-pyrazole-3-carboxylic acid amide] it was 8.11 µM; in that of `CS(=O)(=O)Nc1ccc(-c2cccc(-n3cc(NC(N)=O)c(C(N)=O)n3)c2)cc1` [Example 59, 4-[(aminocarbonyl)amino]-1-{4′-[(methylsulfonyl)amino]-1,1′-biphenyl-3-yl}-1H-pyrazole-3-carboxamide], 1.64 µM.

For `NC(=O)Nc1cn(-c2ccc(-c3cccc(Cl)c3Cl)cc2)nc1C(N)=O` [Example 133, 4-[(aminocarbonyl)amino]-1-(2′,3′-dichloro-1,1′-biphenyl-4-yl)-pyrazole-3-carboxamide], the IC50 came out at 1.63 µM. Consider `NC(=O)Nc1cn(-c2cccc(-c3ccc4c(c3)OCO4)c2)nc1C(N)=O` [Example 62, 4-[(aminocarbonyl)amino]-1-[3-(1,3-benzodioxol-5-yl)phenyl]-1H-pyrazole-3-carboxamide], for which the IC50 turned out to be 7.91 µM. In the case of `CN1CCOc2cc(-c3cccc(-n4cc(NC(N)=O)c(C(N)=O)n4)c3)ccc21` [Example 64, 4-[(aminocarbonyl)amino]-1-[3-(4-methyl-3,4-dihydro-2H-1,4-benzoxazin-7-yl)phenyl]-1H-pyrazole-3-carboxamide] it was 6.08 µM; in that of `NC(=O)Nc1cn(-c2ccc(-c3ccc(C(N)=O)cc3)cc2)nc1C(N)=O` [Example 149, 4-[(aminocarbonyl)amino]-1-[4′-(aminocarbonyl)-1,1′-biphenyl-4-yl]-1H-pyrazole-3-carboxamide], 0.05 µM. In the case of `NC(=O)Nc1cn(-c2cccc(-c3ccccc3CO)c2)nc1C(N)=O` [Example 87] it was 1.52 µM. For the molecule `CNC(=O)c1ccc(-c2ccc(-n3cc(NC(N)=O)c(C(N)=O)n3)cc2)cc1` [Example 145, 4-[(aminocarbonyl)amino]-1-{4′-[(methylamino)carbonyl]-1,1′-biphenyl-4-yl}-1H-pyrazole-3-carboxamide], the IC50 was 0.24 µM. Turning to `Cc1cc(Sc2ccc(F)cc2)ccc1-n1cc(NC(N)=O)c(C(N)=O)n1` [Example 228, 4-[(aminocarbonyl)amino]-1-{4-[(4-fluorophenyl)thio]-2-methylphenyl}-1H-pyrazole-3-carboxamide], the IC50 is greater than 20 µM. Consider `COc1ccc(Cc2cccc(-n3cc(NC(N)=O)c(C(N)=O)n3)c2)cc1OC` [Example 11, 4-[(aminocarbonyl)amino]-1-[3-(3,4-dimethoxybenzyl)phenyl]-1H-pyrazole-3-carboxamide], for which the IC50 amounted to 6.36 µM. In the case of `NC(=O)Nc1cn(-c2ccc(-c3ccc(C(=O)NCc4cccc(F)c4)c(F)c3)cc2)nc1C(N)=O` [Example 156, 4-[(aminocarbonyl)amino]-1-(3′-fluoro-4′-{[(3-fluorobenzyl)amino]carbonyl}-1,1′-biphenyl-4-yl)-1H-pyrazole-3-carboxamide] it was 0.61 µM; in that of `N#CCOc1cccc(-c2ccc(-n3cc(NC(N)=O)c(C(N)=O)n3)c(F)c2)c1` [Example 179, 4-[(aminocarbonyl)amino]-1-[3′-(cyanomethoxy)-3-fluoro-1,1′-biphenyl-4-yl]-1H-pyrazole-3-carboxamide], 0.51 µM. The same measure for `CC(=O)COc1cccc(-c2ccc(-n3cc(NC(N)=O)c(C(N)=O)n3)cc2)c1` [Example 253, 4-[(aminocarbonyl)amino]-1-[3′-(2-oxopropoxy)-1,1′-biphenyl-4-yl]-1H-pyrazole-3-carboxamide]: 1.01 µM; for `Cc1cc(-c2ccc(-n3cc(NC(N)=O)c(C(N)=O)n3)cc2)ccc1F` [Example 109, 4-[(aminocarbonyl)amino]-1-(4′-fluoro-3′-methyl-1,1′-biphenyl-4-yl)-1H-pyrazole-3-carboxamide]: 5.52 µM. In the case of `CCN(CC)C(=O)c1ccc(-c2ccc(-n3cc(NC(N)=O)c(C(N)=O)n3)cc2)cc1` [Example 143, 4-[(aminocarbonyl)amino]-1-{4′-[(diethylamino)carbonyl]-1,1′-biphenyl-4-yl}-1H-pyrazole-3-carboxamide] it was 3.31 µM; in that of `NC(=O)Nc1cn(-c2ccc(-c3ccccc3O)c(Cl)c2)nc1C(N)=O` [Example 223, 4-[(aminocarbonyl)amino]-1-(2-chloro-2′-hydroxy-1,1′-biphenyl-4-yl)-1H-pyrazole-3-carboxamide], 1.15 µM; in that of `NC(=O)Nc1cn(-c2cccc(-c3ccc(Cl)cc3)c2)nc1C(N)=O` [Example 348, 4-[(aminocarbonyl)amino]-1-(4′-chloro-1,1′-biphenyl-3-yl)-1H-pyrazole-3-carboxamide], greater than 20 µM. With `CCCCc1ccc(-c2ccc(-n3cc(C(N)=O)c(NC(N)=O)n3)cc2)cc1` [Example 128], the IC50 is greater than 20 µM.

For `NC(=O)Nc1cn(-c2ccc(-c3ccncc3)cc2)nc1C(N)=O` [Example 40, 4-[(aminocarbonyl)amino]-1-(4-pyridin-4-ylphenyl)-1H-pyrazole-3-carboxamide], the IC50 was determined as 0.351 µM. Turning to `NC(=O)Nc1cn(-c2cccc(-c3ccncc3)c2)nc1C(N)=O` [Example 45, 4-[(aminocarbonyl)amino]-1-(3-pyridin-4-ylphenyl)-1H-pyrazole-3-carboxamide], the IC50 was 0.31 µM.
